Test system: thyroid transcription factor-1 (TTF-1) mRNA expression in A549 lung carcinoma cells
Test: TTF-1 knockdown determination by RT-qPCR
Assay type: cell-based, human
Set-up: knockdown (reduction) of TTF-1 mRNA: concentration or dose not given beside the values
Details: for Relative TTF-1 mRNA Expression (Normalized to GAPDH) / knockdown (reduction) of TTF-1 mRNA: A549 cells, TTF-1 siRNA; for Relative TTF-1 mRNA Expression (Normalized to GAPDH): 4 h dosing then 48 h incubation; for knockdown (reduction) of TTF-1 mRNA: normalized to GAPDH; for knockdown efficacy group: relative to Lipofectamine
Text: Finally, N-X-Phe derivatives achieved functional delivery of siRNA. To verify delivery of functional siRNA using N-X-Phe-DAP/siRNA particles, relative thyroid transcription factor-1 (TTF-1) mRNA expression normalized to GAPDH in A549 lung carcinoma cells was quantified against knockdown efficiencies with Lipofectamine as a control delivery agent (FIG. 6, Table 3). […] “Scrambled” is control siRNA delivered with Lipofectamine. TTF-1 is delivery of TTF-1 siRNA with Lipofectamine (n=5, *p≤0.05, **p≤0.01, ****p≤0.0001).
Sample Preparation for Cell-Based Experiments: For delivery analysis and functional knockdown, N-X-Phe-DAP derivatives (10 μL, 1 mM) or Lipofectamine 3000 (6 μL) was mixed with TTF-1 siRNA (Santa Cruz Biotechnology sc-36756, 6 μL, 10 μM) in Ultrapure™ DNase/RNase-Free Distilled Water (Invitrogen 10977015) to give a final volume of 100 μL. These mixtures were incubated for 30 minutes at room temperature, followed by dilution into 1×DMEM (Gibco 11965092, 1.9 mL). For cytotoxicity assays, N-X-Phe-DAP derivatives (10 μL, 1 mM) were diluted into 1×DMEM (Gibco 11965092, 1.9 mL).
TTF-1 Knockdown Determination: All knockdown experiments were performed in triplicate. A549 cells were seeded at a density of 1.05×10^5 cells/well in a 96-well plate (200 μL) and grown to 70-90% confluency. Cells were washed twice with 1×PBS (200 μL/well), N-X-Phe-DAP/siRNA samples were added (200 μL/well), and mixtures were incubated for 4 h at 37° C., 5% CO2. After 4 h, the media was removed, cells were washed with 1×PBS, wells were replenished with complete media containing 1×DMEM (Gibco 11965092), 10% fetal bovine serum (FBS, Invitrogen 26140087), and 1× antibiotic-antimycotic (Gibco 15240-062) and incubated an additional 48 h.
Cells were lysed and RNA was extracted using an Aurum Total RNA Mini Kit (Bio-Rad 7326820). In brief, cells were lysed with Lysis solution containing 1% β-mercaptoethanol (200 μL). Lysate was then mixed with 70% EtOH (200 μL) and processed using QIAshredder homogenizer columns (Qiagen 79656). Homogenate was then transferred to Aurum RNA binding columns, washed with Low Stringency Wash Solution, and incubated with diluted DNase I solution (80 μL) for 15 minutes at RT. Samples were then serially washed with High and Low Stringency Wash Solutions and RNA was eluded from the column with Ultrapure™ DNase/RNase-Free Distilled Water (Invitrogen 10977015, 80 μL). Recovered RNA was quantified on a Nanodrop One system and samples were diluted in Ultrapure™ DNase/RNase-Free Distilled Water (Invitrogen 10977015, 2 ng/μL). Relative TTF-1 knockdown was quantified by RT-qPCR
An iScript cDNA Synthesis Kit (Bio-Rad 1708891) was used for reverse transcription of extracted RNA samples. In brief, samples were prepared by combining 5× iScript Reaction Mix (4 μL), iScript Reverse Transcriptase (1 μL), extracted RNA (12.5 μL, 2 ng/μL), and Ultrapure™ DNase/RNase-Free Distilled Water (Invitrogen 10977015, 2.5 μL). Samples were incubated on a Bio-Rad Thermal Cycler using the following protocol: 5 min priming at 25° C., 20 min reverse transcription at 40° C., and 1 min reverse transcriptase inactivation at 95° C. Recovered cDNA was quantified on a Nanodrop One and samples were diluted in Ultrapure™ DNase/RNase-Free Distilled Water (Invitrogen 10977015, 50 ng/μL). Gene expression was quantified utilizing qPCR. A primer stock solution (750 nM, 267 μL, H2O) of TTF-1 (Santa Cruz Biotechnology, sc-36756-PR) or GAPDH (Santa Cruz Biotechnology, sc-35448-PR) primer pairs were prepared by dilution of Primer A (20 μL, 10 μM) and Primer B (20 μL, 10 μM) into Ultrapure™ DNase/RNase-Free Distilled Water (Invitrogen 10977015, 227 μL). Samples were prepared in triplicate by combining 2× iTaq Universal SYBR Green Super Mix (5 μL, Bio-Rad), TTF-1 or GAPDH primer stock (4 μL, 750 nM), and recovered cDNA (1 μL, 50 ng/μL) in sterile qPCR tubes. Quantitative Ct values were obtained by running samples on a Bio-Rad CFX96 Touch using the “PWRUP60” protocol. […]

NCCCNC(=O)[C@H](Cc1ccccc1)NC(=O)Cc1cccc2ccccc12 [1-Nap-Phe-DAP]
Relative TTF-1 mRNA Expression (Normalized to GAPDH): 13.8 ± 3.7 | knockdown (reduction) of TTF-1 mRNA: 86% | knockdown efficacy group: highly effective knockdown (dramatically improved relative to Lipofectamine)

NCCCNC(=O)[C@H](Cc1ccccc1)NC(=O)Cc1ccc2ccccc2c1 [2-Nap-Phe-DAP]
Relative TTF-1 mRNA Expression (Normalized to GAPDH): 13.4 ± 1.4 | knockdown (reduction) of TTF-1 mRNA: 87% | knockdown efficacy group: highly effective knockdown (dramatically improved relative to Lipofectamine)

NCCCNC(=O)[C@H](Cc1ccccc1)NC(=O)OCc1ccccc1 [Cbz-Phe-DAP]
Relative TTF-1 mRNA Expression (Normalized to GAPDH): 30.9 ± 3.0 | knockdown (reduction) of TTF-1 mRNA: approximately 70% | knockdown efficacy group: effective knockdown (slightly improved or similar relative to Lipofectamine)

NCCCNC(=O)[C@H](Cc1ccccc1)NC(=O)C1CCCCC1 [Cyc-Phe-DAP]
knockdown efficacy group: ineffective knockdown (less effective than Lipofectamine)

NCCCNC(=O)[C@H](Cc1ccccc1)NC(=O)CC1c2ccccc2-c2ccccc21 [Fm-Phe-DAP]
Relative TTF-1 mRNA Expression (Normalized to GAPDH): 37.9 ± 8.3 | knockdown (reduction) of TTF-1 mRNA: ~62% | knockdown efficacy group: effective knockdown (slightly improved or similar relative to Lipofectamine)

NCCCNC(=O)[C@H](Cc1cccc(F)c1)NC(=O)OCC1c2ccccc2-c2ccccc21 [Fmoc-3F-Phe-DAP]
Relative TTF-1 mRNA Expression (Normalized to GAPDH): 51.8 ± 6.6 | knockdown (reduction) of TTF-1 mRNA: ~48%

NCCCNC(=O)[C@H](Cc1c(F)c(F)c(F)c(F)c1F)NC(=O)OCC1c2ccccc2-c2ccccc21 [Fmoc-F5-Phe-DAP]
Relative TTF-1 mRNA Expression (Normalized to GAPDH): 38.6 ± 4.9 | knockdown (reduction) of TTF-1 mRNA: ~61% | knockdown efficacy group: effective knockdown (slightly improved or similar relative to Lipofectamine)

NCCCNC(=O)[C@H](Cc1ccccc1)NC(=O)OCC1c2ccccc2-c2ccccc21 [Fmoc-Phe-DAP]
Relative TTF-1 mRNA Expression (Normalized to GAPDH): 17.4 ± 2.1 | knockdown (reduction) of TTF-1 mRNA: 83% | knockdown efficacy group: highly effective knockdown (dramatically improved relative to Lipofectamine)

CCCCCCC(=O)N[C@@H](Cc1ccccc1)C(=O)NCCCN [Hex-Phe-DAP]
knockdown efficacy group: ineffective knockdown (less effective than Lipofectamine)

NCCCNC(=O)[C@H](Cc1ccccc1)NC(=O)CCCc1ccc2ccc3cccc4ccc1c2c34 [Pyr-Phe-DAP]
Relative TTF-1 mRNA Expression (Normalized to GAPDH): 33.0 ± 2.2 | knockdown (reduction) of TTF-1 mRNA: approximately 70% | knockdown efficacy group: effective knockdown (slightly improved or similar relative to Lipofectamine)
